Entries after “also recorded” stand apart in the source; their conditions may differ. Where two headings read alike, the source gives them in different places.
Columns and labels:
[1] = system: patients with R853Q mutation; details: human, in vivo
Excerpt: (§1) All patients, or their parents or legal guardian in the case of minors or individuals with intellectual disability, gave written informed consent. The study was approved by the Human Research Ethics Committee of Austin Health, Melbourne.
(§2) Clinical data was collated from the literature for previously reported individuals (N=14), with updated clinical information obtained in one patient. Individuals whose clinical data was not previously published (N=5), had their mutations identified through clinical testing. Detailed phone or clinical interviews with these parents were undertaken by paediatric epileptologists (KBH, MRC), home videos were reviewed and medical records from the treating neurologist obtained.

[2] = system: patients with R1882Q mutation; details: human, in vivo; cited from earlier work
[3] = system: patients with R853Q mutation; details: human, in vivo; cited from earlier work
[4] = system: patients with R1882Q mutation; details: human, in vivo
Excerpt: as §1, §2

human Nav 1.2 channel = human Nav 1.2 channel (Homo sapiens, UniProt Q99250, R1882Q)
Sequence of human Nav 1.2 channel (Q99250 whole entry R1882Q, looked up): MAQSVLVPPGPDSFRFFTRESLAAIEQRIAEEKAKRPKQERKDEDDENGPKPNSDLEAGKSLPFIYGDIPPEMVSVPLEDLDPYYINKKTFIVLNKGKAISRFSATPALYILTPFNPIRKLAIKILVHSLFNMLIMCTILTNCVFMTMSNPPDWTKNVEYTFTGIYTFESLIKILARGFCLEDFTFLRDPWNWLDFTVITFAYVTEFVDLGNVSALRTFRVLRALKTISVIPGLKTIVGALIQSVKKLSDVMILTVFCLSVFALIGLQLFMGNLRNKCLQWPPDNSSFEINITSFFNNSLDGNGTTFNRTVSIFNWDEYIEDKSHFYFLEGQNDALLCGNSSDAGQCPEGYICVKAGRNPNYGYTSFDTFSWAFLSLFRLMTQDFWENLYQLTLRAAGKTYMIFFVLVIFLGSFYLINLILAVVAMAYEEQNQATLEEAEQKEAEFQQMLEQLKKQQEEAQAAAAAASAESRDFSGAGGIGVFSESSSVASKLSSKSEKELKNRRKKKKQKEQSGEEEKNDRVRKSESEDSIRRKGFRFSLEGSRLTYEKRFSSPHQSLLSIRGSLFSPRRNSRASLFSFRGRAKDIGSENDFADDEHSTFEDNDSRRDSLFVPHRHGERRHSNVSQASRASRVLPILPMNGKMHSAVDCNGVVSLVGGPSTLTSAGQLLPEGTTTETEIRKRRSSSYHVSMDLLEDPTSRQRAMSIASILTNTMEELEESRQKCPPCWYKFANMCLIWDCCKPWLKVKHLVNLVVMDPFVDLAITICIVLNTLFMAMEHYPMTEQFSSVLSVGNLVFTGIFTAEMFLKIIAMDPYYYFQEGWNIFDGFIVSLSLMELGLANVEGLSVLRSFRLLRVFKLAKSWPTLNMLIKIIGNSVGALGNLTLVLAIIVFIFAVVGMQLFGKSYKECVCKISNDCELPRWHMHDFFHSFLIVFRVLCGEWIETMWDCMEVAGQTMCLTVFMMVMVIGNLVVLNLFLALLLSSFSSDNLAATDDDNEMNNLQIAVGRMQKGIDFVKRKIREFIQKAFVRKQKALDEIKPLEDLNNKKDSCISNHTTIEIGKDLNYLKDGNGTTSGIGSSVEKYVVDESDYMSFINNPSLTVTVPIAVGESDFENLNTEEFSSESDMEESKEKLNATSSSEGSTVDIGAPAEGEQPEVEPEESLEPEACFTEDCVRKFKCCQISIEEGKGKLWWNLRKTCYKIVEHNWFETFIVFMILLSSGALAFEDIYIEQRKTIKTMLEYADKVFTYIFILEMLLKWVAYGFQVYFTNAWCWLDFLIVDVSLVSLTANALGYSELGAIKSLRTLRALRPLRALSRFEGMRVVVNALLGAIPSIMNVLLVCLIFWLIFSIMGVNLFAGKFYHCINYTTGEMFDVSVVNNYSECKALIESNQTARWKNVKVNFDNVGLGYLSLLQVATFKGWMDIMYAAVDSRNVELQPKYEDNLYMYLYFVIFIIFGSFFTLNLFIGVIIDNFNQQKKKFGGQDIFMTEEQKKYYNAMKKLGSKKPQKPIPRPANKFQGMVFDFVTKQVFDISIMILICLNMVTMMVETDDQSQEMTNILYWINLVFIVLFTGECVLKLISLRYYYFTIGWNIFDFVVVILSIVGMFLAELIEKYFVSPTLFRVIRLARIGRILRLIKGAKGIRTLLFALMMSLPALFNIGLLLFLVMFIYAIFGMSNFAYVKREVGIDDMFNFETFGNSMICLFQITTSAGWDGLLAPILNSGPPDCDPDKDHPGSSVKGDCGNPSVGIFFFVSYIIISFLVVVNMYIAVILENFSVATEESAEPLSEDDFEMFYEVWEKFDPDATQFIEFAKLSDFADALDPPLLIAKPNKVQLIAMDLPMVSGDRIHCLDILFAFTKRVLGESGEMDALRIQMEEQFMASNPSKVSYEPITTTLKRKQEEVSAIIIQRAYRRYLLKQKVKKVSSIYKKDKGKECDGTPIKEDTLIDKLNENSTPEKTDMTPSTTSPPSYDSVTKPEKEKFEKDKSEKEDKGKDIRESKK

CC1OC(C)OC(C)O1 (stereo not shown) [paraldehyde]
Other AED response [1]: Benefit

Nc1nnc(-c2cccc(Cl)c2Cl)c(N)n1 [LTG, lamotrigine]
Other sodium channel blocker response [2]: no effect

NC(=O)N1c2ccccc2CC(=O)c2ccccc21 [OXC, oxcarbazepine]
Other sodium channel blocker response [1]: seizure control remained good | Other sodium channel blocker response [2]: no effect

CC1(C)O[C@@H]2[C@@H](CO[C@@]3(COS(N)(=O)=O)OC(C)(C)O[C@@H]23)O1 [TPM, topiramate]
Other AED response [3]: Benefit

NC(=O)N1c2ccccc2C=Cc2ccccc21 [CBZ, carbamazepine]
Seizure control, summary over patients [4]: Seizures were improved | Other sodium channel blocker response [1]: benefit

C=C(C)[C@@H]1CCC(C)=C[C@H]1c1c(O)cc(CCCCC)cc1O [CBD, cannabidiol]
Other AED response [4]: Benefit

NC1=N[C@H](O)[C@H]2[C@H]3O[C@]4(O)O[C@@H]([C@@H](O)[C@@]2(N1)[C@@H]4O)[C@]3(O)CO [tetrodotoxin]
Sensitivity of persistent INa to tetrodotoxin (human Nav 1.2 channel): sensitive

CCCCCCC(=O)OCC(COC(=O)CCCCCC)OC(=O)CCCCCC [triheptanoin]
Other AED response [4]: Benefit | Improvement of movement disorder [1]: Improvement | Other AED response [1]: Benefit

adrenocorticotropic hormone (SYSMEHFRWGKPVGKKRRPVKVYPNGAEDESAEAFPLEF; Corticotropin; UniProt P01189 138-176, looked up) [ACTH]
Other AED response [1]: Benefit | Seizure control, summary over patients [1]: beneficial in four patients | Other AED response [3]: Benefit

CN1C(=O)CC(=O)N(c2ccccc2)c2cc(Cl)ccc21 [CLB, clobazam]
Other AED response [3]: Benefit

L-Dopa/Carbidopa
Improvement of movement disorder [1]: Improvement

C=CC(N)CCC(=O)O (stereo not shown) [VGB, vigabatrin]
Seizure control, summary over patients [1]: beneficial in one and exacerbated seizures in three | Other AED response [3]: Benefit

CCCC(CCC)C(=O)O [VPA, valproic acid]
Other AED response [4]: Benefit | Other AED response [3]: Benefit

O=C1NC(=O)C(c2ccccc2)(c2ccccc2)N1 [PHT, phenytoin]
Adverse effect with phenytoin loads (movement disorder) [4]: ‘continuous thrashing’ | PHT response [4]: Benefit | Seizure control, summary over patients [4]: some showed marked improvement; also recorded: improved seizure control in two and no definite effect on seizures in three; also recorded: some patients with R1882Q mutations become seizure free; also recorded: not universal | PHT response [1]: No effect | PHT response [2]: No effect | PHT response [3]: No effect

CCCCCc1cc(O)c2c(c1)OC(C)(C)[C@@H]1CCC(C)=C[C@@H]21 [THC, tetrahydrocannabinol]
Other AED response [1]: Benefit
